Data as given in patent publication US10526322B2, “Inhibitors of kidney-type glutaminase, GLS-1” (CORNELL UNIVERSITY, priority 2014, dated 2020).

Legend:
[1] = biological target: T1, K316E/D391K/R459E GAC mutant (Mus musculus, UniProt D3Z7P3, D391K/K316E/R459E); experiment: In vitro photo cross linking of SU-22 and purification of the conjugate; assay type: binding
T1 construct: (residues 72-603) was cloned into a pET23a vector; made in house
T1 sequence (D3Z7P3 72-603 isoform D3Z7P3-2 K316E/D391K/R459E): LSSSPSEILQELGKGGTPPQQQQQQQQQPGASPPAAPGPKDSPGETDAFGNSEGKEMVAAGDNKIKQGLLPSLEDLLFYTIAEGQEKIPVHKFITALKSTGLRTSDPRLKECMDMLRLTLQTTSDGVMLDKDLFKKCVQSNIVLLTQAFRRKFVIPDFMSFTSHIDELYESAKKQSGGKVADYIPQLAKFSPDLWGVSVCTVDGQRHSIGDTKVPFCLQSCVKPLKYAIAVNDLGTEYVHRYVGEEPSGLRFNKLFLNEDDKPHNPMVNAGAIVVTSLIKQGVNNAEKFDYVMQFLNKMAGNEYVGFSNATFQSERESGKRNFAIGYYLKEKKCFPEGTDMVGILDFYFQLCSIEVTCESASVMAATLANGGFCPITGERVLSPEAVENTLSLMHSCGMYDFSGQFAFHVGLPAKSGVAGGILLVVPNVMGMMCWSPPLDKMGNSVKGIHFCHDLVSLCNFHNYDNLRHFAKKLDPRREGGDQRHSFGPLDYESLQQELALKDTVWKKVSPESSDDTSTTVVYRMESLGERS
Protocol: Glutaminase proteins of the WT sequence, or containing the mutations D391K alone, or the mutations K316E/D391K/R459E, were purified as detailed in Example 3 supra. These glutaminase proteins were incubated with increasing concentrations of the compound SU-22, and excited with a hand held UV lamp for 120 seconds. Immediately following UV exposure, samples were loaded onto a 4-20% Tris-Glycine polyacrylamide gel after the addition of SDS-PAGE sample buffer (50 mM Tris-HCl (pH=6.8), 2% SDS, 10% glycerol, 1% β-mercaptoethanol, 12.5 mM EDTA, 0.02% bromophenol blue), and visualized on a UV light box.
Conditions of in vitro cross linking of WT GAC, and the K316E/D391K/R459E GAC mutant were adapted for efficient cross linking and purification of the cross linked protein product. WT GAC and the K316E/D391K/R459E GAC mutant, both containing the N-terminal His-tag, were diluted to a concentration of 100 nM in 20 mM Tris-HCl (pH=8.6) 100 mM NaCl, upon which 10 μM of SU-22 was added. […] The purified cross linked protein was then concentrated using spin columns with a 30 kD molecular weight cutoff and quantified using UV-vis spectroscopy, where the protein was quantified using the A280 (ε280=38,850 M−1 cm−1) and the cross-linked SU-22 using the A350 (ε350=18,900 M−1 cm−1). […]

Dbl-inducible MEFs = experiment: Foci forming assay; assay type: cell-based, mouse; conditions: MEFs expressing Dbl, 10 μM 968
Source text: Inducible oncogenic Dbl cell lines were created using the TET-OFF system in mouse embryonic fibroblasts (MEFs) following the manufacturer's instructions (Clontech). Briefly, PCR products for onco-Dbl-containing NotI and XbaI restriction endonuclease sites were cloned in the per2.1 vector using the TOPO-TA cloning kit (Invitrogen) and subsequently subcloned into the p-TREHA vector (Clontech). The pTRE-HA-onco-Dbl was then co-transfected with pMET-Puro in a 20:1 ratio into parental MEFs (Clontech), which contained the transcriptional transactivator (tTa), with Lipofectamine (Invitrogen). Cells were placed under puromycin selection at 48 hours post transfection, and colonies were selected after 2-4 weeks for doxycycline-dependent expression of HA-onco-Dbl using HA.11 antibody (Covance). Cells were maintained in DMEM supplemented with 10% (v/v) Tet system-approved FBS (clontech) and 100 μg/mL G418 (Gibco). To suppress Dbl expression, 1 μg/mL doxycycline was added to the medium every 2 days. Cells were induced by re-plating in doxycycline-free medium where residual doxycycline was removed by replacing the medium 3 hours after plating. Immunofluorescence was conducted on cells grown 48-72 hours on glass cover slips and fixed with 3.7% formaldehyde. […] Digital images were collected using a Zeiss fluorescence microscope and AxioVision 3.1 software. […]

Row | SMILES | ratio of cross linked SU-22 to protein ([1]; 100 nM K316E/D391K/R459E GAC, 10 μM SU-22, UV, A350/A280) | efficiency of cross linking compared with dimer (D391K) or WT GAC ([1]; UV exposure, SDS-PAGE) | Dbl-induced focus formation (Dbl-inducible MEFs)
1 | CC1(C)CC(=O)C2=C(C1)c1c(ccc3cc4ccccc4cc13)NC2c1ccc(N=[N+]=[N-])cc1 (stereo not drawn) [SU-22] | 0.78 | more efficient | 
2 | CN(C)c1ccc(C2Nc3ccc4ccccc4c3C3=C2C(=O)CC(C)(C)C3)cc1Br (stereo not drawn) [Compound 968] |  |  | blocked
